Where a name gives a salt, the structure may show the parent alone.
Test: Drug release from surface-bound mucin layer on PDMS (UV absorbance)
Assay type: physicochemical
Procedure: The coupling reaction was performed as described previously^9. Briefly, PDMS was treated with O2 plasma at 0.4 mbar pressure and an intensity of 30 W for 90 s. The plasma treatment replaces the […] groups on the polymer surface with hydroxyl groups, which enables a covalent attachment of silane molecules. The silane was used as a coupling agent to further allow for attaching porcine gastric mucin to the surface via carbodiimide coupling. Thus, we here used N-[3-Trimethoxysilyl)propyl]ethylenediamine triacetic acid trisodium salt (TMS-EDTA, abcr, Karlsruhe, Germany), which carries three carboxy groups on the other end. TMS-EDTA was diluted to a final concentration of 0.1% (w/v) in 10 mM Acetate buffer (pH=4.5). The activated PDMS samples were then incubated in the silane solution for 5 h at 60° C. Afterwards, the samples were washed in 80% ethanol (Carl Roth) for 1 h to remove unbound residues before they were placed in the oven at 60° C. for another 60 min to stabilize the bond between the PDMS and the silane.
In the next step, the carboxyl groups of the silane were activated. Therefore, the surface was covered with 100 mM MES buffer (pH=5.0) containing 5 mM 1-Ethyl-3-(3-dimethylaminopropyl)-carbodiimid-hydrochloride (EDC, Carl Roth) and 5 mM N-Hydroxysulfosuccinimide (sulfo-NHS, abcr) at RT for 30 min. Afterwards, the EDC-NHS solution was replaced by phosphate-buffered saline (pH=7.4, Lonza, Velviers, Belgium) containing 0.1% (w/v) of purified mucin and stored at 4° C. overnight. Amine groups from the mucin protein core then react with the EDC activated groups of the silane and form a stable covalent bond.
PDMS was allowed to crosslink at 60° C. overnight. Afterwards, this PDMS layer was coated with mucin as described in Section 1.2.
The mucin layer was loaded with the drug by incubating it in a drug-containing solution (TCL or VAC, 0.5 mg/mL) at 4° C. overnight. […] […] Before starting the release experiment, excessive glycerol, drug, and salt were removed and replaced by 2 mL of ultrapure water.
The […], and the release of TCL was tracked spectroscopically with a specord210 spectral photometer (Analytikjena, Jena, Germany) at 360 nm. The amount of released drug was determined by a standard curve which was generated by measuring serial dilutions of a drug solution (see FIG. 1). The release of VAN was also tracked spectroscopically, however, at 282 nm (for calibration curve, see FIG. 2).

CN[C@H](CC(C)C)C(=O)N[C@H]1C(=O)N[C@@H](CC(N)=O)C(=O)N[C@H]2C(=O)N[C@H]3C(=O)N[C@H](C(=O)N[C@H](C(=O)O)c4cc(O)cc(O)c4-c4cc3ccc4O)[C@H](O)c3ccc(c(Cl)c3)Oc3cc2cc(c3O[C@@H]2O[C@H](CO)[C@@H](O)[C@H](O)[C@H]2O[C@H]2C[C@](C)(N)[C@H](O)[C@H](C)O2)Oc2ccc(cc2Cl)[C@H]1O [Vancomycin, Vancomycin hydrochloride]
CTCL, vancomycin release (Group 1: glycerol, Mg^2+, trigger 150 mM NaCl, time 0 h): 0.0014 ± 0.0010 mg/mL
CTCL, vancomycin release (Group 1: glycerol, Mg^2+, trigger 150 mM NaCl, time 0.5 h): 0.0051 ± 0.0029 mg/mL
CTCL, vancomycin release (Group 1: glycerol, Mg^2+, trigger 150 mM NaCl, time 1.0 h): 0.0083 ± 0.0042 mg/mL
CTCL, vancomycin release (Group 1: glycerol, Mg^2+, trigger 150 mM NaCl, time 2.0 h): 0.0098 ± 0.0031 mg/mL
CTCL, vancomycin release (Group 1: glycerol, Mg^2+, trigger 150 mM NaCl, time 3.0 h): 0.0097 ± 0.0029 mg/mL
CTCL, vancomycin release (Group 2: glycerol, Mg^2+, water, time 0 h): 0.0008 ± 0.0008 mg/mL
CTCL, vancomycin release (Group 2: glycerol, Mg^2+, water, time 0.5 h): 0.0008 ± 0.0011 mg/mL
CTCL, vancomycin release (Group 2: glycerol, Mg^2+, water, time 1.0 h): 0.0022 ± 0.0007 mg/mL
CTCL, vancomycin release (Group 2: glycerol, Mg^2+, water, time 2.0 h): 0.0007 ± 0.0009 mg/mL
CTCL, vancomycin release (Group 2: glycerol, Mg^2+, water, time 3.0 h): 0.0012 ± 0.0006 mg/mL
CTCL, vancomycin release (Group 3: no condensation, Mg^2+, trigger 150 mM NaCl, time 0 h): 0.0018 ± 0.0008 mg/mL
CTCL, vancomycin release (Group 3: no condensation, Mg^2+, trigger 150 mM NaCl, time 0.5 h): 0.0024 ± 0.0010 mg/mL
CTCL, vancomycin release (Group 3: no condensation, Mg^2+, trigger 150 mM NaCl, time 1.0 h): 0.0034 ± 0.0009 mg/mL
CTCL, vancomycin release (Group 3: no condensation, Mg^2+, trigger 150 mM NaCl, time 2.0 h): 0.0034 ± 0.0003 mg/mL
CTCL, vancomycin release (Group 3: no condensation, Mg^2+, trigger 150 mM NaCl, time 3.0 h): 0.0034 ± 0.0003 mg/mL
CTCL, vancomycin release (Group 4: no condensation, no stabilization, trigger 150 mM NaCl, time 0 h): 0.0033 ± 0.0022 mg/mL
CTCL, vancomycin release (Group 4: no condensation, no stabilization, trigger 150 mM NaCl, time 0.5 h): 0.0034 ± 0.0014 mg/mL
CTCL, vancomycin release (Group 4: no condensation, no stabilization, trigger 150 mM NaCl, time 1.0 h): 0.0022 ± 0.0005 mg/mL
CTCL, vancomycin release (Group 4: no condensation, no stabilization, trigger 150 mM NaCl, time 2.0 h): 0.0011 ± 0.0010 mg/mL
CTCL, vancomycin release (Group 4: no condensation, no stabilization, trigger 150 mM NaCl, time 3.0 h): 0.0013 ± 0.0011 mg/mL
release after exposure to physiological trigger (Mg^2+, 150 mM NaCl): release was observed
release where the trigger was absent (Mg^2+, no trigger): almost no release was observed
